Reference: US20070173490A1, “Novel solid forms of (4R)-1-[2-chloro-5-fluorobenzoyl)amino-3-methoxybenzoyl]-1,2,3,5- tetrahydro-spiro[4h-1-benzazepine-4,1'-[2]cyclopentene]-3'-carboxylic acid” (priority 2006, published 2007)
Entries after “also recorded” stand apart in the source; their conditions may differ. Values belong to the compound of their own block, whether it stands above or below them.

Experiments:
Format in all cases: physicochemical
[1] = Crystallization solvents list and observations (solubility of the compound in solvents); settings: about 20 mg in 4 ml vial, about 40° C.
Experimental: About 20 mg of (4R)-1-[4-(2-chloro-5-fluorobenzoyl)amino-3-methoxybenzoyl]-1,2,3,5-tetrahydro-spiro[4H-1-benzazepine-4,1′-[2]cyclopentene]-3′-carboxylic acid was transferred into a 4 ml vial. Solvent was added in the vial to make the solution or suspension depending on solubility at about 40° C. on hot plate. The vial was removed from hot plate and kept at room temperature. The caps were put on without sealing. All the vials were placed in the hood for slow evaporation. After the solvent evaporated, the solid was investigated using PXRD, DSC, TGA, and microscope.

[2] = Solid form conversion on heating/desolvation via DSC; settings: conversions occurred via DSC, upon heating/desolvation
Experimental: DSC analysis of each sample was performed using a Q100 Differential Scanning Calorimeter (TA Instruments, New Castle, Del., U.S.A.), which uses Thermal Advantage™ version 4.1.0 for operating instrument. In addition, the analysis software used was Universal Analysis 2000 for Windows 2000/XP, version 4.1D; Build 4.1.0.16 (Copyright © 1998-2004 TA Instruments-Water LLC).
For all of the DSC analyses, an aliquot of a sample was weighed into either a standard aluminium pan (Pan part #900786.091; lid part #900779.901) or a hermetic aluminium pan (Pan part #900793.901; lid part #900794.901 (TA Instruments, New Castle Del. USA)). Non-solvated samples were loaded into standard pans and were sealed either by crimping for dry samples or press fitting for wet samples (such as slurries). Solvated samples (including hydrates) were loaded into hermetic pans and hermetically sealed. The sample pan was loaded into the Q100 Differential Scanning Calorimeter, which is equipped with an autosampler, and a thermogram was obtained by individually heating the same using the control software at a rate of 10° C./minute from Tmin (typically 25° C.) to Tmax (typically 275° C.) using an empty aluminium pan as a reference. Dry nitrogen (compressed nitrogen, grade 4.8 (BOC Gases, Murray Hill, N.J. USA)) was used as a sample purge gas and was set at a flow rate of 50 mL/minute. Thermal transitions were viewed and analyzed using the analysis software provided with the instrument.
At least 10 forms were discovered based on distinguished PXRD patterns (all conversions occurred via DSC; such conversions can also occur under ambient conditions at a slower pace).

[3] = Water slurry study of polymorph stability
Experimental: Form 6 was crystallized from acetone, butanol, ethanol, isopropyl alcohol, hexane, and water. It melted with a peak at about 203-204° C. and a heat of fusion of about 75-80 J/g.

Observation (solubility) ([1]; 1,4-Dioxane): Good solubility
Observation (solution or suspension) ([1]; 1,4-Dioxane): Solution
Observation (solubility) ([1]; Acetone): Good solubility
Observation (solution or suspension) ([1]; Acetone): Solution
Observation (solubility) ([1]; Acetonitrile): Good solubility
Observation (solution or suspension) ([1]; Acetonitrile): Solution
Observation (solubility) ([1]; Butanol): Medium solubility
Observation (solution or suspension) ([1]; Butanol): Solution
Observation (solubility) ([1]; Dichloromethane): Good solubility
Observation (solution or suspension) ([1]; Dichloromethane): Solution
Observation (solubility) ([1]; Ethanol): Medium solubility
Observation (solution or suspension) ([1]; Ethanol): Solution
Observation (solubility) ([1]; Ethyl acetate): Good solubility
Observation (solution or suspension) ([1]; Ethyl acetate): Solution
Observation (solubility) ([1]; Hexane): Poor solubility
Observation (solution or suspension) ([1]; Hexane): Suspension
Observation (solubility) ([1]; Isopropyl alcohol): Medium solubility
Observation (solution or suspension) ([1]; Isopropyl alcohol): Solution
Observation (solubility) ([1]; Methanol): Medium solubility
Observation (solution or suspension) ([1]; Methanol): Solution
Observation (solubility) ([1]; Nitromethane): Good solubility
Observation (solution or suspension) ([1]; Nitromethane): Solution
Observation (solubility) ([1]; Toluene): Solution is not clear
Observation (solution or suspension) ([1]; Toluene): Precipitation
Observation (solubility) ([1]; Water): Poor wetability
Observation (solution or suspension) ([1]; Water): Suspension
SMILES: COc1cc(C(=O)N2CC[C@]3(C=C(C(=O)O)CC3)Cc3ccccc32)ccc1NC(=O)c1cc(F)ccc1Cl [Compound of Formula (I), (4R)-1-[4-(2-chloro-5-fluorobenzoyl)amino-3-methoxybenzoyl]-1,2,3,5-tetrahydro-spiro[4H-1-benzazepine-4,1′-[2]cyclopentene]-3′-carboxylic acid]

Solid form conversion (physical stability) ([2]; listed as 4): (solvate converted to an amorphous form)
SMILES: COc1cc(C(=O)N2CC[C@]3(C=C(C(=O)O)CC3)Cc3ccccc32)ccc1NC(=O)c1cc(F)ccc1Cl [Form 4, (4R)-1-[4-(2-chloro-5-fluorobenzoyl)amino-3-methoxybenzoyl]-1,2,3,5-tetrahydro-spiro[4H-1-benzazepine-4,1′-[2]cyclopentene]-3′-carboxylic acid]

Solid form conversion (physical stability) ([2]; listed as 7): (solvate converted to form 1)
Solid form conversion (physical stability) ([2]; listed as form 7): converted to form 1
SMILES: COc1cc(C(=O)N2CC[C@]3(C=C(C(=O)O)CC3)Cc3ccccc32)ccc1NC(=O)c1cc(F)ccc1Cl [Form 7, (4R)-1-[4-(2-chloro-5-fluorobenzoyl)amino-3-methoxybenzoyl]-1,2,3,5-tetrahydro-spiro[4H-1-benzazepine-4,1′-[2]cyclopentene]-3′-carboxylic acid]
Solid form conversion (physical stability) [2]: converted to form 1; also recorded: ultimately to form 6

Thermodynamic stability among polymorphs ([3]; from highest melting temperature and heat of fusion, confirmed by water slurry study): thermodynamically most stable polymorph
SMILES: COc1cc(C(=O)N2CC[C@]3(C=C(C(=O)O)CC3)Cc3ccccc32)ccc1NC(=O)c1cc(F)ccc1Cl [Form 6, (4R)-1-[4-(2-chloro-5-fluorobenzoyl)amino-3-methoxybenzoyl]-1,2,3,5-tetrahydro-spiro[4H-1-benzazepine-4,1′-[2]cyclopentene]-3′-carboxylic acid]

Solid form conversion (physical stability) [2]: converted to form 5
Solid form conversion (physical stability) ([2]; listed as 3): (solvate converted to form 5)
SMILES: COc1cc(C(=O)N2CC[C@]3(C=C(C(=O)O)CC3)Cc3ccccc32)ccc1NC(=O)c1cc(F)ccc1Cl [Form 3, (4R)-1-[4-(2-chloro-5-fluorobenzoyl)amino-3-methoxybenzoyl]-1,2,3,5-tetrahydro-spiro[4H-1-benzazepine-4,1′-[2]cyclopentene]-3′-carboxylic acid]

Solid form conversion (physical stability) ([2]; listed as 2): (solvate converted to form 6)
SMILES: COc1cc(C(=O)N2CC[C@]3(C=C(C(=O)O)CC3)Cc3ccccc32)ccc1NC(=O)c1cc(F)ccc1Cl [Form 2, (4R)-1-[4-(2-chloro-5-fluorobenzoyl)amino-3-methoxybenzoyl]-1,2,3,5-tetrahydro-spiro[4H-1-benzazepine-4,1′-[2]cyclopentene]-3′-carboxylic acid]

Solid form conversion in water slurry ([3]; equal amount of forms 1, 5 and 6 mixed in water for more than 76 hours): converted to form 6
SMILES: COc1cc(C(=O)N2CC[C@]3(C=C(C(=O)O)CC3)Cc3ccccc32)ccc1NC(=O)c1cc(F)ccc1Cl [Form 1, (4R)-1-[4-(2-chloro-5-fluorobenzoyl)amino-3-methoxybenzoyl]-1,2,3,5-tetrahydro-spiro[4H-1-benzazepine-4,1′-[2]cyclopentene]-3′-carboxylic acid]

Solid form conversion (physical stability) [2]: converted to form 1
Solid form conversion (physical stability) ([2]; listed as 8): (solvate converted to form 1)
Solid form conversion (physical stability) ([2]; listed as form 8): converted to form 1
SMILES: COc1cc(C(=O)N2CC[C@]3(C=C(C(=O)O)CC3)Cc3ccccc32)ccc1NC(=O)c1cc(F)ccc1Cl [Form 8, (4R)-1-[4-(2-chloro-5-fluorobenzoyl)amino-3-methoxybenzoyl]-1,2,3,5-tetrahydro-spiro[4H-1-benzazepine-4,1′-[2]cyclopentene]-3′-carboxylic acid]
